Reference: patent publication US20230103444A1 (The Regents of the University of Colorado, a Body Corporate, priority 2020, published 2023)

Columns and labels:
[1] = tested on: CRC102 patient-derived tumor organoids; test: Patient tumor organoid cytotoxicity; format: cell-based; conditions: Homo sapiens; single agent, Table 4A
Method: Patient Cell Tumor Organoid Culture. CRC048 and CRC102 patient cell samples were expanded and cultured as PDTOs using reported methodologies and reagents. (Drost et al., 2016; Sato et al., 2011) Briefly, patient cells were washed with PBS, digested with TrypLE, and filtered through 100 μm cell strainer before used in 3D cell culture. Patient cells were seeded at 5,000 cells per well in 96-well plates, coated with 2% Matrigel, and allowed to self-assemble as PDTOs over 72 h.
Tumor Organoid Cytotoxicity.

[2] = Pharmacokinetics in CD-1 mice
Method: Whole blood was harvested at specific time points and the separated plasma frozen at −80° C. for storage or used for LC-MS/MS analysis.

Method for SW620 tumor xenografts: In vivo studies. […] Body weight and tumor volumes were monitored 2×/week. […] In addition, irinotecan was administered i.p. at 50 mg/kg.

Cc1cc(Nc2ccc(NC(=O)Cc3cccs3)cc2)nc(N2CCCC2)n1 [Compound 6, N-(4-((6-methyl-2-(pyrrolidin-1-yl)pyrimidin-4-yl)amino)phenyl)-2-(thiophen-2-yl)acetamide]
IC50 [1]: 22.6 µM
AUC(0-t) ([2]; female, CD-1, mouse, plasma, ip, 50 mg/kg): 80.3 µg·h/mL
Cmax ([2]; female, CD-1, mouse, plasma, ip, 50 mg/kg, CMax (ng/mL), single i.p. 50 mg/kg): ~30 µg/mL
CMax (ng/mL) ([2]; plasma, single i.p. 50 mg/kg, 50 mg/kg): 29,900 ng/mL
CL ([2]; single i.p. 50 mg/kg): 0.62 L/h/kg
V2 ([2]; single i.p. 50 mg/kg): 2.7 L/kg
tumor volume, combination with irinotecan (SW620 tumor xenografts; compound 6 5 mg/kg i.p. 2×/day + irinotecan 60 mg/kg i.p. 1×/week, 28 days, vs single agents or control): significantly inhibit colon SW620 tumor xenografts to almost no tumor volume
tumor volume after the last treatment, combination with irinotecan (SW620 tumor xenografts; compound 6 + irinotecan vs irinotecan alone, last treatment day 28): significantly inhibits colon SW620 tumors to almost no tumor volume beyond the last treatment
survival of tumor-bearing mice, combination with irinotecan (SW620 tumor xenografts; compound 6 + irinotecan, compared to vehicle and single agents): significantly increases the survival
survival of tumor-bearing mice, compound alone (SW620 tumor xenografts; compound 6 alone, compared to vehicle): significantly increases the survival
